Results reported in US8796277B2, “Radioprotector compounds and related methods” (Peter MacCallum Cancer Institute, priority 2006, dated 2014).

Columns and labels:
[1] = test system: transformed human keratinocyte cell line (FEP 1811); experiment: Clonogenic survival cell culture assay for cytotoxicity (un-irradiated cells); format: cell-based; settings: un-irradiated FEP 1811 cells, one hour drug incubation, colonies counted after eight days; concentrations in FIG. 1 plotted in μM; read-out: cytotoxicity C50 (drug concentration corresponding to 50% survival)
Experimental: (§1) The assay involves the transformed human keratinocyte cell line (FEP 1811) (as described by Smith et al (6)) and evaluation of cytotoxicity and radioprotective activity using the clonogenic survival endpoint. The details are described in detail in Martin et al (4) (the disclosure of which is included herein in its entirety by way of reference), but briefly, mid-log phase monolayer cultures are incubated with various concentrations of the test drugs for one hour, after which the monolayers are washed and dispersed into single cell suspensions using pronase, and finally appropriate numbers of cells are dispensed into Petri dishes. Colonies are counted after eight days incubation. For radioprotection studies, the monolayer cultures are irradiated in a ^137Cs-Gamma-cell radiation source to a dose of 12 Gy. The irradiation (with a dose rate of 0.6 Gy per minute) is started 30 minutes after addition of the test drug. After completion of irradiation, incubation of cultures is continued until the total time of exposure to the drug reaches 60 minutes. Cultures are then washed and plated for clonogenic survival as described for the cytotoxicity experiments. The experiments include untreated cultures as controls, and the plating efficiency of these controls is used to adjust that of the test cultures, in order to calculate the overall clonogenic survival.
In general each experiment involves investigation of 4 or 5 different test concentrations of the drug under study, with and without irradiation. The data analysis for the experiments with un-irradiated cells generates curves showing the relationship between cell survival and drug concentration (FIG. 1), from which the drug concentration corresponding to 50% survival (C50) is determined.

[2] = test system: transformed human keratinocyte cell line (FEP 1811); experiment: Clonogenic survival cell culture assay for radioprotective activity (cells irradiated to 12 Gy); format: cell-based; settings: FEP 1811 cells, 12 Gy 137Cs gamma at 0.6 Gy per minute, irradiation started 30 minutes after drug addition, total drug exposure 60 minutes
Experimental: as §1
However, for some of the compounds, the survival decreases at higher drug concentrations, due to cytotoxicity. Non-linear regression analysis of the data, for example that in FIG. 2, generates a parameter denoted the protection factor (PF), which is the ratio of the maximum survival to the radiation-only (zero drug) survival. PF is therefore a measure of radioprotective efficacy. The C50 and PF values, and for a number of the compounds are collected in Table 1, with standard deviations (SD) for those compounds that have been studied in replicate experiments.

SMILES | IC50 [1] | radioprotection PF (protection factor: ratio of the maximum survival to the radiation-only (zero drug) survival) [2]
CN1CCN(c2ccc3[nH]c(-c4ccc5[nH]c(-c6ccc(N(C)C)cc6F)nc5c4)nc3c2)CC1 [Example 1, 4-dimethylamino-2-fluoro-1-(5′-(5″-(4′″-methylpiperazin-1′″-yl)benzimidazol-2″-yl)benzimidazol-2′-yl)benzene] | 28 µM | 9.3
CN1CCN(c2ccc3[nH]c(-c4ccc5[nH]c(-c6c(F)cc(N(C)C)cc6F)nc5c4)nc3c2)CC1 [Example 2, 2,6-difluoro-4-dimethylamino-1-(5′-(5″-(4′″-methylpiperazin-1′″-yl)benzimidazol-2″-yl)benzimidazol-2′-yl)benzene] | 25 µM | 6.4
CNc1ccc(-c2nc3cc(-c4nc5cc(N6CCN(C)CC6)ccc5[nH]4)ccc3[nH]2)c(F)c1 [Example 3, 2-fluoro-4-methylamino-1-(5′-(5″-(4′″-methylpiperazin-1′″-yl)benzimidazol-2″-yl)benzimidazol-2′-yl)benzene] | 218 µM | 7
CN1CCN(c2ccc3[nH]c(-c4ccc5[nH]c(-c6ccc(N(C)C)cc6Cl)nc5c4)nc3c2)CC1 [Example 4, 2-chloro-4-dimethylamino-1-(5′-(5″-(4′″-methylpiperazin-1′″-yl)benzimidazol-2″-yl)benzimidazol-2′-yl)benzene] | 18 µM | 5.5
COc1ccc(-c2nc3cc(-c4nc5cc(N6CCN(C)CC6)ccc5[nH]4)ccc3[nH]2)cc1F [Example 5, 3-fluoro-4-methoxy-1-(5′-(5″-(4′″-methylpiperazin-1′″-yl)benzimidazol-2″-yl)benzimidazol-2′-yl)benzene] | 91 µM | 2.1
CN1CCN(c2ccc3[nH]c(-c4ccc5[nH]c(-c6ccc(F)cc6)nc5c4)nc3c2)CC1 [Example 6, 4-fluoro-1-{5′-[5″-(4′″-methylpiperazin-1′″-yl)benzimidazol-2″-yl]benzimidazol-2′-yl}benzene] | 34 µM | 4.5
CN1CCN(c2ccc3[nH]c(-c4ccc5[nH]c(-c6ccc(N(C)C)c(F)c6)nc5c4)nc3c2)CC1 [Example 7, 4-dimethylamino-3-fluoro-1-(5′-(5″-(4′″-methylpiperazin-1′″-yl)benzimidazol-2″-yl)benzimidazol-2′-yl)benzene] | 26 µM | 3.2
CNc1ccc(F)c(-c2nc3cc(-c4nc5cc(N6CCN(C)CC6)ccc5[nH]4)ccc3[nH]2)c1 [Example 8, 2-fluoro-5-methylamino-1-(5′-(5″-(4′″-methylpiperazin-1′″-yl)benzimidazol-2″-yl)benzimidazol-2′-yl)benzene] | 151 µM | 15.5
CN1CCN(c2ccc3[nH]c(-c4ccc5[nH]c(-c6cc(N(C)C)ccc6F)nc5c4)nc3c2)CC1 [Example 9, 5-dimethylamino-2-fluoro-1-(5′-(5″-(4′″-methylpiperazin-1′″-yl)benzimidazol-2″-yl)benzimidazol-2′-yl)benzene] | 21.9 µM | 16.7
CNc1cc(F)c(-c2nc3cc(-c4nc5cc(N6CCN(C)CC6)ccc5[nH]4)ccc3[nH]2)cc1F [Example 10, 2,5-difluoro-4-methylamino-1-(5′-(5″-(4′″-methylpiperazin-1′″-yl)benzimidazol-2″-yl)benzimidazol-2′-yl)benzene] | 51.4 µM | 9.62
Cc1cc(N(C)C)ccc1-c1nc2ccc(-c3nc4ccc(N5CCN(C)CC5)cc4[nH]3)cc2[nH]1 [methylproamine, reference compound] | 19.3 µM | 10
